Holding throughout (assay): Kinase inhibitor library screening, PrestoBlue cell viability, 1 or 10 μM, 72 h
In data set [1] the test system is IGR37-XP cells (Vemurafenib-resistant). Particulars: IGR37 XP, 72 h.
For the next data set, the system named is A375 cells (parental). Particulars: A375 Parental, 72 h.
For data set [2], the system named is 501Mel-GP cells (Dabrafenib-resistant). To be noted: 501Mel GP, 72 h.
The test system of the next data set is 501Mel cells (parental). To be noted: 501Mel Parental, 72 h. Summed up:
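Each compound was applied to parental melanoma cells and to derivatives made resistant to Vemurafenib or Dabrafenib. After treatment, viability was read with PrestoBlue on a plate reader and expressed as % of untreated cells, with each line run at least in duplicate.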

The subject of data set [3] is A375-GP cells (Dabrafenib-resistant). To be noted: A375 GP, 72 h.
In a further data set the test system is IGR37 cells (parental). Particulars: IGR37 Parental, 72 h.
The test system of data set [4] is A375-XP cells (Vemurafenib-resistant). To be noted: A375 XP, 72 h.
Data set [5] relates to IGR37-GP cells (Dabrafenib-resistant). Particulars: IGR37 GP, 72 h.
Data set [6] concerns 501Mel-XP cells (Vemurafenib-resistant). To be noted: 501Mel XP, 72 h.

`CN(c1ncccc1CNc1nc(Nc2ccc3c(c2)CC(=O)N3)ncc1C(F)(F)F)S(C)(=O)=O` [PF-00562271] gave a cell viability, IGR37 XP, 10μΜ in [1] (10μΜ) of 1.9%. Further, the “cell viability, IGR37 XP, 1μΜ” value in data set [1] (1μΜ, in %) turned out to be 82.7. For the same molecule, the “cell viability, A375 Parental, 1μΜ” value in the data set on A375 cells (parental) (1μΜ, in %) was 104.9. In addition, the “cell viability, A375 Parental, 10μΜ” value with A375 cells (parental) (10μΜ, in %) is 4.0. Further, the “cell viability, 501Mel GP, 1μΜ” value in data set [2] (1μΜ, in %) was 98.0. Also, the “cell viability, 501Mel GP, 10μΜ” value in data set [2] (10μΜ, in %) came out at 0.9. Also, the “cell viability, 501Mel Parental, 10μΜ” value in the data set with 501Mel cells (parental) (10μΜ, in %) was found to be 1.5. Also, the “cell viability, A375 GP, 1μΜ” value in data set [3] (1μΜ, in %) stood at 92.2. In [3] (10μΜ, in %), the “cell viability, A375 GP, 10μΜ” value stood at 4.9. Also, in the data set with IGR37 cells (parental) (1μΜ, in %), the “cell viability, IGR37 Parental, 1μΜ” value is listed as 103.3. In addition, the “cell viability, IGR37 Parental, 10μΜ” value with IGR37 cells (parental) (10μΜ, in %) is 3.6. Moreover, in data set [4] (1μΜ, in %), the “cell viability, A375 XP, 1μΜ” value is listed as 107.5. Moreover, in data set [4] (10μΜ, in %), the “cell viability, A375 XP, 10μΜ” value amounted to 3.4. The same molecule returned a cell viability, IGR37 GP, 10μΜ in data set [5] (10μΜ) of 2.9%. Besides, the “cell viability, 501Mel XP, 1μΜ” value in data set [6] (1μΜ, in %) stood at 94.1. In addition, the “cell viability, 501Mel XP, 10μΜ” value in data set [6] (10μΜ, in %) is reported as 0.458.
On to `CC(=O)NCC(=O)N1[C@@H]2CC[C@H]1c1ccc(Nc3ncc(C(F)(F)F)c(NC4CCC4)n3)cc12` [PF-03814735], for which the “cell viability (kinase inhibitor library screening)” value in [1] (1μΜ) is 69.3%; in data set [1] (10μΜ) it was 2.0%; in the data set with A375 cells (parental) (10μΜ) it was 8.5%; with A375 cells (parental) (1μΜ), 32.3%; in data set [2] (1μΜ), 89.2%; in data set [2] (10μΜ), 8.3%. In addition, the “cell viability (kinase inhibitor library screening)” value with 501Mel cells (parental) (1μΜ) was 82.8%; in the data set on 501Mel cells (parental) (10μΜ), 24.0%; in data set [3] (1μΜ), 35.1%; in data set [3] (10μΜ), 3.7%; with IGR37 cells (parental) (1μΜ), 88.9%; in the data set with IGR37 cells (parental) (10μΜ) it was 37.6%. Besides, the “cell viability (kinase inhibitor library screening)” value stood at 40.9% in [4] (1μΜ); 12.4% in data set [4] (10μΜ); 91.2% in [5] (1μΜ); 10.4% in [5] (10μΜ); 72.2% in data set [6] (1μΜ); 3.8% in data set [6] (10μΜ).
For the molecule `CN(C)C1CCN(C(=O)c2ccc(NC(=O)Nc3ccc(-c4nc(N5CCOCC5)nc(N5CCOCC5)n4)cc3)cc2)CC1` [PF-05212384 (PKI-587)], the Cell viability in kinase inhibitor library screening, IGR37 XP, 10μΜ in data set [1] (10μΜ) was 3%. Also, in data set [1] (1μΜ, in %), the “Cell viability in kinase inhibitor library screening, IGR37 XP, 1μΜ” value was 33.0. Further, the “Cell viability in kinase inhibitor library screening, A375 Parental, 10μΜ” value in the data set on A375 cells (parental) (10μΜ) is on record as 13.9. Further, the “Cell viability in kinase inhibitor library screening, A375 Parental, 1μΜ” value in the data set with A375 cells (parental) (1μΜ) is 35.9. The “Cell viability in kinase inhibitor library screening, 501Mel GP, 1μΜ” value in [2] (1μΜ, in %) is 29.3. In data set [2] (10μΜ, in %), the “Cell viability in kinase inhibitor library screening, 501Mel GP, 10μΜ” value was 2.2. Further, in the data set with 501Mel cells (parental) (1μΜ, in %), the “Cell viability in kinase inhibitor library screening, 501Mel Parental, 1μΜ” value is recorded as 22.6. Further, the “Cell viability in kinase inhibitor library screening, 501Mel Parental, 10μΜ” value in the data set with 501Mel cells (parental) (10μΜ, in %) is listed as 1.3. The “Cell viability in kinase inhibitor library screening, A375 GP, 1μΜ” value in [3] (1μΜ) is given as 34.6. In addition, the “Cell viability in kinase inhibitor library screening, A375 GP, 10μΜ” value in data set [3] (10μΜ) is recorded as 13.9. Besides, the “Cell viability in kinase inhibitor library screening, IGR37 Parental, 1μΜ” value in the data set with IGR37 cells (parental) (1μΜ, in %) turned out to be 35.0. The “Cell viability in kinase inhibitor library screening, IGR37 Parental, 10μΜ” value in the data set on IGR37 cells (parental) (10μΜ, in %) is on record as 14.2. For the same molecule, the “Cell viability in kinase inhibitor library screening, A375 XP, 1μΜ” value in [4] (1μΜ) was found to be 33.4. In data set [4] (10μΜ), the “Cell viability in kinase inhibitor library screening, A375 XP, 10μΜ” value worked out at 11.6. The same molecule registered a Cell viability in kinase inhibitor library screening, IGR37 GP, 10μΜ in data set [5] (10μΜ) of 6.8%. Further, the “Cell viability in kinase inhibitor library screening, IGR37 GP, 1μΜ” value in data set [5] (1μΜ, in %) is given as 39.4. In addition, the “Cell viability in kinase inhibitor library screening, 501Mel XP, 1μΜ” value in [6] (1μΜ, in %) is 53.1. Besides, in data set [6] (10μΜ, in %), the “Cell viability in kinase inhibitor library screening, 501Mel XP, 10μΜ” value came out at 0.9.
`Cc1[nH]c(/C=C2\C(=O)Nc3ccc(S(=O)(=O)Cc4c(Cl)cccc4Cl)cc32)c(C)c1C(=O)N1CCC[C@@H]1CN1CCCC1` [PHA-665752]: the “cell viability (kinase inhibitor library screening)” value is reported as 0.9% in data set [1] (10μΜ); 1.9% in the data set on A375 cells (parental) (10μΜ); 98.9% in the data set on A375 cells (parental) (1μΜ); 86.9% in data set [2] (1μΜ); -0.7% in [2] (10μΜ); 100.2% in the data set on 501Mel cells (parental) (1μΜ). The “cell viability (kinase inhibitor library screening)” value in the data set on 501Mel cells (parental) (10μΜ) is listed as 0.232%; in data set [3] (1μΜ) it was 96.1%; in data set [3] (10μΜ), 0.5%; with IGR37 cells (parental) (1μΜ) it was 99.2%; in the data set on IGR37 cells (parental) (10μΜ) it was 0.24%; in [4] (1μΜ), 99.9%. In addition, the “cell viability (kinase inhibitor library screening)” value in data set [4] (10μΜ) is 0.9%; in [5] (1μΜ), 98.8%; in data set [5] (10μΜ), 0.8%; in data set [6] (1μΜ), 70.6%; in data set [6] (10μΜ), -0.7%.
As to `CCc1cccc(CC)c1NC(=O)N1Cc2n[nH]c(NC(=O)c3ccc(N4CCN(C)CC4)cc3)c2C1` [PHA-680632], the “cell viability (kinase inhibitor library screening)” value in data set [1] (1μΜ) is 96.4%; in [1] (10μΜ), 40.2%; with A375 cells (parental) (10μΜ), 37.5%; in the data set on A375 cells (parental) (1μΜ), 85.1%; in [2] (1μΜ) it was 105.0%; in data set [2] (10μΜ), 79.1%. Also, the “cell viability (kinase inhibitor library screening)” value turned out to be 104.0% in the data set with 501Mel cells (parental) (1μΜ); 95.7% with 501Mel cells (parental) (10μΜ); 81.0% in data set [3] (1μΜ); 37.4% in data set [3] (10μΜ); 93.9% in the data set with IGR37 cells (parental) (1μΜ); 73.1% in the data set with IGR37 cells (parental) (10μΜ). Also, the “cell viability (kinase inhibitor library screening)” value amounted to 93.5% in [4] (1μΜ); 51.3% in [4] (10μΜ); 92.2% in [5] (1μΜ); 78.7% in [5] (10μΜ); 96.6% in data set [6] (1μΜ); 75.1% in data set [6] (10μΜ).
With `CNC(=O)c1nn(C)c2c1C(C)(C)Cc1cnc(Nc3ccc(N4CCN(C)CC4)cc3)nc1-2` [PHA-848125], the “cell viability (kinase inhibitor library screening)” value came out at 75.2% in data set [1] (1μΜ); 31.7% in data set [1] (10μΜ); 5.7% in the data set with A375 cells (parental) (10μΜ); 56.7% with A375 cells (parental) (1μΜ); 63.8% in data set [2] (1μΜ); 28.1% in [2] (10μΜ). The “cell viability (kinase inhibitor library screening)” value is reported as 75.4% in the data set with 501Mel cells (parental) (1μΜ); 14.7% in the data set on 501Mel cells (parental) (10μΜ); 57.9% in [3] (1μΜ); 4.3% in [3] (10μΜ); 95.1% in the data set with IGR37 cells (parental) (1μΜ); 70.2% in the data set on IGR37 cells (parental) (10μΜ). Besides, the “cell viability (kinase inhibitor library screening)” value came out at 66.4% in data set [4] (1μΜ); 7.5% in data set [4] (10μΜ); 78.8% in [5] (1μΜ); 66.9% in data set [5] (10μΜ); 75.1% in data set [6] (1μΜ); 14.5% in [6] (10μΜ).
As to `CCCCCCCCCCCCc1ccc(S(=O)(=O)Nc2nncs2)cc1` [PHT-427], the “cell viability (kinase inhibitor library screening)” value in [1] (10μΜ) is recorded as 79.8%; in the data set with A375 cells (parental) (10μΜ), 98.4%; in data set [2] (1μΜ), 115.7%; in data set [2] (10μΜ) it was 95.0%; with 501Mel cells (parental) (1μΜ), 99.9%; in the data set with 501Mel cells (parental) (10μΜ) it was 96.2%. Moreover, the “cell viability (kinase inhibitor library screening)” value in data set [3] (1μΜ) turned out to be 107.5%; in data set [3] (10μΜ), 93.5%; in the data set on IGR37 cells (parental) (10μΜ), 110.3%; in data set [4] (1μΜ), 106.9%; in [4] (10μΜ), 100.2%; in data set [5] (1μΜ), 95.0%. Also, the “cell viability (kinase inhibitor library screening)” value in [5] (10μΜ) came out at 98.8%; in data set [6] (10μΜ), 85.4%.

Values taken from article PMC6364417, “Kinase inhibitor library screening identifies synergistic drug combinations effective in sensitive and resistant melanoma cells” (Journal of Experimental & Clinical Cancer Research : CR, 2019).
